In patent US12091425B2 (AMGEN INC., priority 2016, dated 2024):

Legend:
[1] = system: OPM-2 human multiple myeloma cell line; assay: Cell Viability Assay (OPM-2 10 FBS); type: cell-based; settings: OPM-2 cells, CellTiter-Glo
Procedure, shortened: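 IC50 from 4-parameter logistic fit of CellTiter-Glo luminescence. 3000 cells/well, 10% FBS medium, serial compound dilutions, 16 h, 37 °C/5% CO2; read 25 min post-reagent.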

[2] = biological target: T1, Mcl-1/Bim interaction, recombinant human Mcl-1 (171-327) (Homo sapiens, UniProt Q07820); assay: Cell free Mcl-1: Bim Affinity Assay (Mcl-1 HTRF); type: binding
T1 construct: made in house
Procedure, shortened: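 Biotin-Bim(51-76) peptide, TR-FRET readout, overnight incubation; IC50 from duplicate competition curves, 4-parameter fit.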

[3] = cell free Mcl-1:Bim TR-FRET, recombinant human Mcl-1 (171-327)
[4] = Homo sapiens, OPM-2, 16 h, 16 h
[5] = TR-FRET, 0.1 nM Mcl-1 (171-327), 0.05 nM biotin-Bim (51-76)
[6] = Homo sapiens, OPM-2, 16 h, 16 h incubation

T1 sequence (Q07820 171-327): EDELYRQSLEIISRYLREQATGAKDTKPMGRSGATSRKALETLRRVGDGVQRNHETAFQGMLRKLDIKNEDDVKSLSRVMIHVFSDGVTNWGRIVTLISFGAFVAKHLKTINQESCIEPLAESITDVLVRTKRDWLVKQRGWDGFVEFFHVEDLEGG

Row | Structure (SMILES) | IC50 [2, 3] | IC50 [1, 4] | IC50 [2, 5] | other results
1 | C[C@H]1C/C=C/[C@H](O)[C@@H]2CC[C@H]2CN2C[C@@]3(CCCc4cc(Cl)ccc43)COc3ccc(cc32)C(=O)NS(=O)(=O)[C@@H]1c1ccccc1 (single isomer, unassigned) [Example 654] | 7.6 nM | – | – | IC50 ([1]; 16 h): 3510 nM
2 | C[C@@H]1[C@@H](C)C/C=C/[C@H](OCCN2CCCCC2=O)[C@@H]2CC[C@H]2CN2C[C@@]3(CCCc4cc(Cl)ccc43)COc3ccc(cc32)C(=O)NS1(=O)=O [Example 728, (1S,3′R,6′R,7′S,8′E,11′S,12′R)-6-chloro-11′,12′-dimethyl-7′-(2-(2-oxo-1-piperidinyl)ethoxy)-3,4-dihydro-2H,15′H-spiro[naphthalene-1,22′-[20]oxa[13]thia[1,14]diazatetracyclo[14.7.2.0^3,6.0^19,24]pentacosa [8,16,18,24]tetraen]-15′-one-13′, 13′-dioxide] | 0.437 nM | 268 nM | – | –
3 | CCO[C@@H]1/C=C/CCCS(=O)(=O)NC(=O)c2ccc3c(c2)N(C[C@@H]2CC[C@H]21)C[C@@]1(CCCc2cc(Cl)ccc21)CO3 [Example 209, (1S,3′R,6′R,7′R,8′E)-6-chloro-7′-ethoxy-3,4-dihydro-2H,15′H-spiro[naphthalene-1,22′-[20]oxa[13]thia[1,14]diazatetracyclo[14.7.2.0^3,6.0^19,24]pentacosa [8,16,18,24]tetraen]-15′-one 13′,13′-dioxide] | – | 5370 nM | 5.25 nM | –
4 | CC[C@@H]1CC/C=C/[C@H](OCc2nccn2C)[C@@H]2CC[C@H]2CN2C[C@@]3(CCCc4cc(Cl)ccc43)COc3ccc(cc32)C(=O)NS1(=O)=O [Example 965, (1S,3′R,6′R,7′S,8′E,12′R)-6-chloro-12′-ethyl-7′-((1-methyl-1H-IMIDAZOL-2-yl)methoxy)-3,4-dihydro-2H,15′H-spiro[naphthalene-1,22′-[20]oxa[13]thia[1,14]diazatetracyclo[14.7.2.0^3,6.0^19,24]pentacosa [8,16,18,24]tetraen]-15′-one 13′,13′-dioxide] | – | – | 0.403 nM | IC50 [1, 6]: 693 nM
5 | CC[C@@H]1CC/C=C/[C@H](OCCC(=O)O)[C@@H]2CC[C@H]2CN2C[C@@]3(CCCc4cc(Cl)ccc43)COc3ccc(cc32)C(=O)NS1(=O)=O [Example 1008, 3-(((1S,3′R,6′R,7′S,8′E,12′R)-6-chloro-12′-ethyl-13′,13′-dioxido-15′-oxo-3,4-dihydro-2H-spiro[naphthalene-1,22′-[20]oxa[13]thia[1,14]diazatetracyclo[14.7.2.0^3,6.0^19,24]pentacosa [8,16,18,24]tetraen]-7′-yl)oxy)propanoic Acid] | – | – | 0.232 nM | IC50 [1, 6]: 5590 nM
6 | C[C@@H]1/C=C/[C@H](O)[C@@H]2CC[C@H]2CN2C[C@@]3(CCCc4cc(Cl)ccc43)COc3ccc(cc32)C(=O)NS(=O)(=O)[C@H](C)C1 [Example 1015, (1S,3′R,6′R,7′S,8′E,10′S,12′R)-6-chloro-7′-hydroxy-10′,12′-dimethyl-3,4-dihydro-2H,15′H-spiro[naphthalene-1,22′-[20]oxa[13]thia[1,14]diazatetracyclo[14.7.2.0^3,6.0^19,24]pentacosa [8,16,18,24]tetraen]-15′-one 13′,13′-dioxide] | – | – | 0.275 nM | IC50 [1, 6]: 235 nM
7 | CC[C@@H]1CC/C=C/[C@H](OC)[C@@H]2CC[C@H]2CN2C[C@@]3(CCCc4cc(Cl)ccc43)COc3cc(Cl)c(cc32)C(=O)NS1(=O)=O [Example 688, (1S,3′R,6′R,7′S,8′E,12′R)-6,17′-dichloro-12′-ethyl-7′-methoxy-3,4-dihydro-2H,15′H-spiro[naphthalene-1,22′-[20]oxa[13]thia[1,14]diazatetracyclo[14.7.2.0^3,6.0^19,24]pentacosa [8,16,18,24]tetraen]-15′-one 13′,13′-dioxide] | 14.1 nM | 13600 nM | – | –
8 | C=CCN1CCCC[C@H](O)[C@@H]2CC[C@H]2CN2C[C@@]3(CCCc4cc(Cl)ccc43)COc3ccc(cc32)C(=O)NS1(=O)=O [Example 87, (1S,3′R,6′R,7′S)-6-chloro-7′-hydroxy-12′-(2-propen-1-yl)-3,4-dihydro-2H,15′H-spiro[naphthalene-1,22′-[20]oxa[13]thia[1,12,14]triazatetracyclo[14.7.2.0^3,6.0^19,24]pentacosa[16,18,24]trien]-15′-one 13′,13′-dioxide] | – | 3540 nM | 3.31 nM | –
9 | O=C1NS(=O)(=O)CC/C=C/C[C@H](O)[C@@H]2CC[C@H]2CN2C[C@@]3(CCCc4cc(Cl)ccc43)COc3ccc1cc32 (single isomer, unassigned) [Example 846] | 2.18 nM | 2760 nM | – | –
10 | Cc1nc(CO[C@H]2/C=C/CC[C@@H](C)S(=O)(=O)NC(=O)c3ccc4c(c3)N(C[C@@H]3CC[C@H]32)C[C@@]2(CCCc3cc(Cl)ccc32)CO4)no1 [Example 603, (1S,3′R,6′R,7′S,8′E,12′R)-6-chloro-12′-methyl-7′-((5-methyl-1,2,4-oxadiazol-3-yl)methoxy)-3,4-dihydro-2H,15′H-spiro[naphthalene-1,22′-[20]oxa[13]thia[1,14]diazatetracyclo[14.7.2.0^3,6.0^19,24]pentacosa [8,16,18,24]tetraen]-15′-one 13′,13′-dioxide] | 0.667 nM | 438 nM | – | –
11 | COCC[C@@H]1C[C@@H](C)/C=C/[C@H](OC)[C@@H]2CC[C@H]2CN2C[C@@]3(CCCc4cc(Cl)ccc43)COc3ccc(cc32)C(=O)NS1(=O)=O (single isomer, unassigned) [Example 484] | 0.331 nM | – | – | IC50 ([1]; 16 h): 412 nM
12 | CC[C@@H]1C/C=C/[C@H](OCC(=O)OC)[C@@H]2CC[C@H]2CN2C[C@@]3(CCCc4cc(Cl)ccc43)COc3ccc(cc32)C(=O)NS(=O)(=O)C1 [Example 741, methyl (((1S,3′R,6′R,7′S,8′E,11′R)-6-chloro-11′-ethyl-13′,13′-dioxido-15′-oxo-3,4-dihydro-2H-spiro[naphthalene-1,22′-[20]oxa[13]thia [1,14]diazatetracyclo[14.7.2.0^3,6.0^19,24]pentacosa[8,16,18,24]tetraen]-7′-yl)oxy)acetate] | 13.5 nM | 3110 nM | – | –
13 | COC(=O)CN1CC/C=C/[C@H](O)[C@@H]2CC[C@H]2CN2C[C@@]3(CCCc4cc(Cl)ccc43)COc3ccc(cc32)C(=O)NS1(=O)=O [Example 32, methyl((1S,3′R,6′R,7′S,8′E)-6-chloro-7′-hydroxy-13′,13′-dioxido-15′-oxo-3,4-dihydro-2H,12′H-spiro[naphthalene-1,22′-[20]oxa[13]thia[1,12,14]triazatetracyclo[14.7.2.0^3,6.0^19,24]pentacosa[8,16,18,24]tetraen]-12′-yl)acetate] | – | 546 nM | 0.623 nM | –
14 | CO[C@H](C)CC1[C@@H](C)C/C=C/[C@H](O)[C@@H]2CC[C@H]2CN2C[C@@]3(CCCc4cc(Cl)ccc43)COc3ccc(cc32)C(=O)NS1(=O)=O (single isomer, unassigned) [Example 529] | 0.97 nM | – | – | IC50 ([1]; 16 h): 754 nM
15 | COC(=O)CC[C@@]1(C)CC/C=C\[C@H](O)[C@@H]2CC[C@H]2CN2C[C@@]3(CCCc4cc(Cl)ccc43)COc3ccc(cc32)C(=O)NS1(=O)=O (single isomer, unassigned) [Example 563] | 2.69 nM | – | – | IC50 ([1]; 16 h): 4500 nM
16 | C[C@@H]1[C@@H](C)C/C=C/[C@H](OCCN2CC(F)(F)C2)[C@@H]2CC[C@H]2CN2C[C@@]3(CCCc4cc(Cl)ccc43)COc3ccc(cc32)C(=O)NS1(=O)=O [Example 9, (1S,3′R,6′R,7′S,8′E,11′S,12′R)-6-chloro-7′-(2-(3,3-difluoro-1-azetidinyl)ethoxy)-11′,12′-dimethyl-3,4-dihydro-2H,15′H-spiro[naphthalene-1,22′-[20]oxa[13]thia[1,14]diazatetracyclo[14.7.2.0^3,6.0^19,24]pentacosa[8,16,18,24]tetraen]-15′-one 13′,13′-dioxide] | – | 155 nM | 0.63 nM | –
17 | COC(=O)CC1C(C)CC=CC(OC)C2CCC2CN2CC3(CCCc4cc(Cl)ccc43)COc3ccc(cc32)C(=O)NS1(=O)=O (single isomer, unassigned) [Example 576] | 0.382 nM | – | – | IC50 ([1]; 16 h): 220 nM
18 | C[C@@H]1C[C@@H](C)/C=C/[C@H](OCCN2CCOCC2)[C@@H]2CC[C@H]2CN2C[C@@]3(CCCc4cc(Cl)ccc43)COc3ccc(cc32)C(=O)NS1(=O)=O [Example 1018, (1S,3′R,6′R,7′S,8′E,10′R,12′R)-6-chloro-10′,12′-dimethyl-7′-(2-(4-morpholinyl)ethoxy)-3,4-dihydro-2H,15′H-spiro[naphthalene-1,22′-[20]oxa[13]thia[1,14]diazatetracyclo[14.7.2.0^3,6.0^19,24]pentacosa [8,16,18,24]tetraen]-15′-one 13′,13′-dioxide] | – | – | 0.356 nM | IC50 [1, 6]: 285 nM
19 | C[C@@H]1[C@@H](C)C/C=C/[C@H](OCCNc2ccccc2)[C@@H]2CC[C@H]2CN2C[C@@]3(CCCc4cc(Cl)ccc43)COc3ccc(cc32)C(=O)NS1(=O)=O [Example 11, (1S,3′R,6′R,7′S,8′E,11′S,12′R)-6-chloro-11′,12′-dimethyl-7′-(2-(phenylamino)ethoxy)-3,4-dihydro-2H,15′H-spiro[naphthalene-1,22′-[20]oxa[13]thia[1,14]diazatetracyclo[14.7.2.0^3,6.0^19,24]pentacosa[8,16,18,24]tetraen]-15′-one 13′,13′-dioxide] | – | 3650 nM | 5.22 nM | –
20 | O=C1NS(=O)(=O)[C@@H]2COC[C@H]2C/C=C/[C@H](O)[C@@H]2CC[C@H]2CN2C[C@@]3(CCCc4cc(Cl)ccc43)COc3ccc1cc32 (single isomer, unassigned) [Example 1030] | – | – | 0.195 nM | IC50 ([1]; 16 h incubation): 271 nM
